From patent US7863014B2 (priority 2001, dated 2011) come the findings set out here.

Structures are written as SMILES.

In assay [1] the target is M. tuberculosis Ppnk protein (Mycobacterium tuberculosis, UniProt P9WHV7). The class given is biochemical, M. tuberculosis H37Rv.
Assay [2] concerns polyphosphate-dependent NAD kinase from Micrococcus flavus. The class given is biochemical.

Sequence of M. tuberculosis Ppnk protein (P9WHV7 whole entry): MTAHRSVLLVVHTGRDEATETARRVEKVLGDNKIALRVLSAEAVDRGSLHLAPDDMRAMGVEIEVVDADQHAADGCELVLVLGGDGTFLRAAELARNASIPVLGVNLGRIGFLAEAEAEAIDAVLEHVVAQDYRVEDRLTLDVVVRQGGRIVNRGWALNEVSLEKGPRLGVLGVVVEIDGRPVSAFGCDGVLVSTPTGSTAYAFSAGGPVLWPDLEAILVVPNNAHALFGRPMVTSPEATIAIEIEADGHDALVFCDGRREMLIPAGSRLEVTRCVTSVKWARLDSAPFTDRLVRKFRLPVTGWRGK

Consider `Nc1ncnc2c1ncn2[C@@H]1O[C@H](COP(=O)(O)OP(=O)(O)OP(=O)(O)O)[C@@H](O)[C@H]1O` [ATP], for which the ATP/polyphosphate reaction ratio entry in assay [1] and in assay [2] was “ATP (100%)” each time.

For `[Cl][Al]([Cl])[Cl]` [AlCl3], the “Activation by metal ions” value in assay [1] and in assay [2] was “AlCl3 (0%)” each time.

For the compound `[Ca+2].[Cl-].[Cl-]` [CaCl2], the “Activation by metal ions” value is on record as “CaCl2 (34%)” in assay [1] and “CaCl2 (65%)” in assay [2].

Consider `[Cl-].[Cl-].[Co+2]` [CoCl2], for which the “Activation by metal ions” value in assay [1] is “CoCl2 (55%)”; in assay [2] it was “CoCl2 (51%)”.

As for `[Cl][Cu][Cl]` [CuCl2], the “Activation by metal ions” value is given as “CuCl2 (8%)” in assay [1] and “CuCl2 (33%)” in assay [2].

On to `[Cl-].[Cl-].[Mg+2]` [MgCl2], for which the “Activation by metal ions” value in assay [1] and in assay [2] was “MgCl2 (100%)” throughout.

For `[Cl][Mn][Cl]` [MnCl2], the figures for the “Activation by metal ions” value in assay [1] and in assay [2] were “MnCl2 (268%)” and “MnCl2 (143%)”, respectively.

Regarding `[Cl-].[Cl-].[Zn+2]` [ZnCl2], the “Activation by metal ions” value in assay [1] and in assay [2] was “ZnCl2 (30%)” in each case.

As to `O=P1(O)OP(=O)(O)OP(=O)(O)OP(=O)(O)OP(=O)(O)OP(=O)(O)O1` [hexametaphosphate], the Polyphosphate specificity result in assay [1] is “(72%)”; in assay [2] it was “(58%)”.
